ChEMBL document CHEMBL5303765, “Data for DCP probe BAY-7081” (2023)

Experiments:
[1] = biological target: T1, Muscarinic acetylcholine receptor M2 (Homo sapiens) (UniProt P08172); settings: Compound concentration 10.0 uM
T1 sequence (whole entry): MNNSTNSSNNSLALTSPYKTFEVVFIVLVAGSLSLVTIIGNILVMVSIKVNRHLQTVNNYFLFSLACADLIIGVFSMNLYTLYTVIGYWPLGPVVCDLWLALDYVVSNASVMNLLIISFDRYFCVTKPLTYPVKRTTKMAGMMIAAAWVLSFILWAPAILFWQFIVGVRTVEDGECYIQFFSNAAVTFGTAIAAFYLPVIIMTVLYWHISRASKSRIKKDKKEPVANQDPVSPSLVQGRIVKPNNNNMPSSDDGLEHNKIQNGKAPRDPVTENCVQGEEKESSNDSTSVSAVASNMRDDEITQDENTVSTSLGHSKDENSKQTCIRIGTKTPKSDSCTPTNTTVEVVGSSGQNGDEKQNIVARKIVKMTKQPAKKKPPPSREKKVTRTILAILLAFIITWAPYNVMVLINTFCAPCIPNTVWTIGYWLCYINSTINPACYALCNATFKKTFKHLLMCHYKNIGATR

[2] = biological target: Histamine H2 receptor (Homo sapiens) (UniProt P25021); settings: Compound concentration 10.0 uM
[3] = biological target: Serine/threonine-protein kinase 24 (Homo sapiens) (UniProt Q9Y6E0); assay: MST3 SGC Tm panel (DSF); settings: for ΔTm: Compound concentration 10.0 uM
[4] = biological target: T2, Peripheral plasma membrane protein CASK (Homo sapiens) (UniProt O14936); assay: CASK SGC Tm panel (DSF); settings: for ΔTm: Compound concentration 10.0 uM
T2 sequence (whole entry): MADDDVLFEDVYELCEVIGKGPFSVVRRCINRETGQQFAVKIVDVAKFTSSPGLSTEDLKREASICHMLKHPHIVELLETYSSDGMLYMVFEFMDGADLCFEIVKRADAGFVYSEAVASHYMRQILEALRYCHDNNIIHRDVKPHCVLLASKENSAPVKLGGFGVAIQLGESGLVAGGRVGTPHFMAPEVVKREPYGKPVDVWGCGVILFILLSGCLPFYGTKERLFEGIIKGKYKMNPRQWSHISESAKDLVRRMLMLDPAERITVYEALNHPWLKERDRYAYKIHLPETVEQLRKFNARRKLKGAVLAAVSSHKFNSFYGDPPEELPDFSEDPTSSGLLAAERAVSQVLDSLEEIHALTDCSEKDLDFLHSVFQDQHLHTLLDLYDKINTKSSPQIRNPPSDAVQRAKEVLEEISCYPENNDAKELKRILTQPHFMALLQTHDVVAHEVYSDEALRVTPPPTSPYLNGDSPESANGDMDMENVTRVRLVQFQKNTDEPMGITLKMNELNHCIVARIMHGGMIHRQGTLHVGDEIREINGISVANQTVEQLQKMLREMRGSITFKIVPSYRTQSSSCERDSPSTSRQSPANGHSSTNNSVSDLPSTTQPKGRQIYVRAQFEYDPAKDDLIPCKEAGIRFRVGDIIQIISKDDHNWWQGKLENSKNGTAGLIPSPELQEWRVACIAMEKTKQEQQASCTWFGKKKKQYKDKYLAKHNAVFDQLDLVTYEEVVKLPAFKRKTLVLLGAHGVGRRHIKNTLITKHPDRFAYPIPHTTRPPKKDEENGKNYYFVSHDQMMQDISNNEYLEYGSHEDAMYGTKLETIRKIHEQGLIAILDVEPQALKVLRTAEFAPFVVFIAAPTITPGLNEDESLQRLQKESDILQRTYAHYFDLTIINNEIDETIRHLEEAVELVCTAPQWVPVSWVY

[5] = biological target: Sodium-dependent noradrenaline transporter (Homo sapiens) (UniProt P23975); settings: Compound concentration 10.0 uM
[6] = biological target: T3, Dual specificity mitogen-activated protein kinase kinase 4 (Homo sapiens) (UniProt P45985); assay: MAP2K4 SGC Tm panel (DSF); settings: for ΔTm: Compound concentration 10.0 uM
T3 sequence (whole entry): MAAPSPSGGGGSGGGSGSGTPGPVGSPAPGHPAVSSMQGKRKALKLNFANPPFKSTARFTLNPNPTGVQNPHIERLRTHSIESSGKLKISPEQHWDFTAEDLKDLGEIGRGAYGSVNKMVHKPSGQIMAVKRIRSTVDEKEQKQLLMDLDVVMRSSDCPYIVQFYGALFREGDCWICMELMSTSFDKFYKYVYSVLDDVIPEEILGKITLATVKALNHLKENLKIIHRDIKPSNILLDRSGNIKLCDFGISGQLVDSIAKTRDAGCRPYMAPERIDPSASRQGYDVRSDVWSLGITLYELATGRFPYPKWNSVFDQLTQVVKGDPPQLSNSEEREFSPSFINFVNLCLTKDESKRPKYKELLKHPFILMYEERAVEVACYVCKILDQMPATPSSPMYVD

[7] = biological target: Casein kinase I isoform delta (Homo sapiens) (UniProt P48730); assay: CSNK1D SGC Tm panel (DSF); settings: for ΔTm: Compound concentration 10.0 uM
Chain of Casein kinase I isoform delta (Homo sapiens) (P48730 whole entry, looked up, canonical isoform): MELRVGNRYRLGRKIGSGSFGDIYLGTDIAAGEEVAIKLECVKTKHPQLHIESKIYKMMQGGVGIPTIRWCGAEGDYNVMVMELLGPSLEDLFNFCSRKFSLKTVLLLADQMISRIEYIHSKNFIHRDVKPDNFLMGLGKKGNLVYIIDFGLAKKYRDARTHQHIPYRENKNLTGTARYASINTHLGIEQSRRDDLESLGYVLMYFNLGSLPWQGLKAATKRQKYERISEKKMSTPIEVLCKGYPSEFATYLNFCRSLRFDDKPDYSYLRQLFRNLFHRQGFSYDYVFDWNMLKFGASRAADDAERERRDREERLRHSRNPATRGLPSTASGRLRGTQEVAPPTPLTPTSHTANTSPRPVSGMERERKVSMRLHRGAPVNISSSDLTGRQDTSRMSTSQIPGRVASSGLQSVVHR

Chain of Histamine H2 receptor (Homo sapiens) (P25021 whole entry): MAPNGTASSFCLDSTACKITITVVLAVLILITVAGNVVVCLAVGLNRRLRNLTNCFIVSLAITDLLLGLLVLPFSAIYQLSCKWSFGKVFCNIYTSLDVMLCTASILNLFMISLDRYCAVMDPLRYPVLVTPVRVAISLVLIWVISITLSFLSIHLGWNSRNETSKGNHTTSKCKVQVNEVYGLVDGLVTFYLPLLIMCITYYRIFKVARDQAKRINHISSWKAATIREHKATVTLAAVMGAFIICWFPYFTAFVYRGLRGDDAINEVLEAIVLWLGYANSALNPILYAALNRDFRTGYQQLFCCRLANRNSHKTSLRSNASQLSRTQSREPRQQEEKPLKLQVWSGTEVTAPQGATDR
Chain of Serine/threonine-protein kinase 24 (Homo sapiens) (Q9Y6E0 whole entry, looked up): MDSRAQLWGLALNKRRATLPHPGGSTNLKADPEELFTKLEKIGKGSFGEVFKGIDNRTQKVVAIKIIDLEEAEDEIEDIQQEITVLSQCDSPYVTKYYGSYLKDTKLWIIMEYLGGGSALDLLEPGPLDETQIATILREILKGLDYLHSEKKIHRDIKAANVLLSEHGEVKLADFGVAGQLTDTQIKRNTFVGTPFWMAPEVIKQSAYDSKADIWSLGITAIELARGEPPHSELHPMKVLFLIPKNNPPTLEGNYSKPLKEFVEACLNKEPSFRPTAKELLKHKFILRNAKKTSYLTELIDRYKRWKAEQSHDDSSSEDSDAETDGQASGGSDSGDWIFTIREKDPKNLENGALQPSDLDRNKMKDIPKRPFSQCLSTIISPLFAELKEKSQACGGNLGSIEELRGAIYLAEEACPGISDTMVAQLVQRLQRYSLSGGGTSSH
Chain of Sodium-dependent noradrenaline transporter (Homo sapiens) (P23975 whole entry): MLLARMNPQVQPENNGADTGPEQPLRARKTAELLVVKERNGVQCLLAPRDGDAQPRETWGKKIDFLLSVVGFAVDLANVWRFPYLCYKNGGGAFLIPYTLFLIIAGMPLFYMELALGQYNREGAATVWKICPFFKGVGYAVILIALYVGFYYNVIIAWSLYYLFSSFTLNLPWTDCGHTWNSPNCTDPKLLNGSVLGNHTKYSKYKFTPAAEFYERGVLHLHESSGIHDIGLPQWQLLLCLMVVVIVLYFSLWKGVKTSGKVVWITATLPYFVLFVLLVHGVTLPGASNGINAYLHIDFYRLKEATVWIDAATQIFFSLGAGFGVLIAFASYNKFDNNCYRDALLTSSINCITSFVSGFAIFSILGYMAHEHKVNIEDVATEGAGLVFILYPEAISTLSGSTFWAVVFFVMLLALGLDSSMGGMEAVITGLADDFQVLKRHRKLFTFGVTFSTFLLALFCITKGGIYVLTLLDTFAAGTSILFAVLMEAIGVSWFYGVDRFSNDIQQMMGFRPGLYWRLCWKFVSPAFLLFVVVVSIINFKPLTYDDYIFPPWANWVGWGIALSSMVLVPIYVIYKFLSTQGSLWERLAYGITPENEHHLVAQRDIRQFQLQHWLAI

Structure (SMILES)	inhibition [1] [%]	inhibition [2] [%]	delta Tm Staurosporine positive control [3]	ΔTm [3]	delta Tm Staurosporine positive control [4]	ΔTm [4]	inhibition [5] [%]	delta Tm Staurosporine positive control [6]	ΔTm [6]	delta Tm Staurosporine positive control [7]	ΔTm [7]
CCC[C@H]1CNCc2c1[nH]c(=O)c(C#N)c2N1CCC2(CC1)CC2	-1.19	32.7	7.85	-2.08	4.28	-0.242	-3.72	11.8	-0.306	2.05	-0.142
CCC[C@@H]1CNCc2c1[nH]c(=O)c(C#N)c2N1CCC2(CC1)CC2	2.48	25.3	7.85	-2.14	4.28	-0.0745	-7.72	11.8	-0.34	2.05	0.052
